According to patent publication US4226610A, “Herbicidal compounds, preparation thereof and herbicides containing the same” (Meiji Selka Kaisha, Ltd., priority 1978, dated 1980):

How the values were obtained:
cockspar grass = assay: Experiment 1 foliar application to naturally growing weeds; type: in vivo, Echinochloa Crusgalli P. Beauv.; conditions: 2 months
Method in brief: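 Read-outs were a 0–5 killing index at 21 days and a reproduction score from (-), no reproduction, to (+++), no suppression. Reproduction was read at 2 months for cockspar grass and 4 months for the other species, after foliar spraying at 150 liter per 10 are with 0.1% surfactant.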

yabugarashi = assay: as above; type: in vivo, Cayratia japonica Houtt.; conditions: 4 months
Method in brief: (§1)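 Naturally growing weeds receive a foliar spray of compound at prescribed concentrations, 150 liter per 10 are, containing 0.1% octylphenyl polyoxyethanol. Kill is rated 0 (no effect) to 5 (death) after 21 days. Regrowth is rated (-) to (+++) after 4 months, or 2 months for cockspar grass.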

hedge bindweed = assay: as above; type: in vivo, Calystegis hederacea Wall.; conditions: 4 months
Method in brief: as §1

eulalia = assay: Experiment 2 foliar application in Japanese cypress afforested land; type: in vivo, Miscanthus sinensis Andress.; set-up: key: 0 = no effect, 5 = death; conditions: 0.125%; after 3 months
Method in brief: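 Field foliar spray on shrubs in Japanese cypress afforested land at 150 liter per 10 are, with compounds at prescribed concentrations. Killing index scored from 0 (no effect) to 5 (death) at 30 days and 3 months. Plant heights ranged from about 50 to 100 cm.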

kiichigo = assay: Experiment 3 foliar application to naturally growing shrubs; type: in vivo, Rubus palmatsu Thunb. forma coptophyllus Makino; conditions: after 3 months
Method in brief: (§2)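 Naturally growing shrubs were sprayed on the foliage at 150 liter per 10 are. Plant kill was then scored from 0 to 5 at 1 and 3 months, and reproduction was graded − to +++ at 3 months.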

lace shrub = assay: as above; type: in vivo, Stephanandra incisa Zabel; conditions: after 3 months
Method in brief: as §2

yamazakura = assay: as above; type: in vivo, Prunus donarium Sieb. var. spontanae Makino; conditions: after 3 months
Method in brief: as §2

oak = assay: as above; type: in vivo, Quercus serrata Thunb; conditions: after 3 months
Method in brief: as §2

omodaka = assay: Experiment 6 spray on aquatic plants in concrete pots; type: in vivo, Sagittaria trifolia L.; conditions: for Reproduction-inhibiting effect: 3 months
From the text: (§3) The detail of the assessment made in the following Experiments of the invention was as follows:
(§4) Four months after treatment, evaluation was made for inhibition of reproduction expressed in terms of symbols ranging from (-) to (+++) where (-) means no reproduction, namely complete suppression of reproduction, (±) remarkable suppression of reproduction; (+) considerable suppression of reproduction; (++) medium supprestion of reproduction; and (+++) no suppression of reproduction.
(§5) A paddy field soil was packed in 50 cm. square concrete pots. omodaka (Sagittaria trifolia L.), urikawa (Sagittaria pygmaea Miq.), prog-bit (Hydrocharis dubia) and aginashi (Sagittaria Aginashi Makino) were transplanted; then water was poured onto the soil at 5 cm. depth.
(§6) Further, water hyacinth, greater-duckweed (Spirodela polyrhiza Schleid.) and duckweed (Lemna paucicostata Hegelm) were floated on the water.
(§7) After one month, the compounds of the invention diluted to the prescribed concentrations as indicated in Table 8 were sprayed in an amount of 100 liter per 10 are. As a surfactant, 0.1% of octylphenyl polyoxyethanol was added thereto.
(§8) The killing index (0, no effect; 5, death) after 21 days and 3 months and the reproduction-inhibiting effect (-, no reproduction; +++, maximum reproduction) after 3 months were determined.

urikawa = assay: as above; type: in vivo, Sagittaria pygmaea Miguel; conditions: 3 months
From the text: as §3, §4, §5, §6, §7, §8

progbit = assay: as above; type: in vivo, Hydrocharis dubia; conditions: 3 months
From the text: as §3, §4, §5, §6, §7, §8

hornwort = assay: Experiment 7 application to water; type: in vivo, Ceratophyllum demersum L.; set-up: scale not given here
From the text: (§9) A black soil was packed in 50 cm. square concrete pots and water was poured there-onto at 50 cm. in depth. Hornwort (Ceratophyllum demersum L.), stonewort (Chara Braunii Gmel.) and salvinia (Salvinia natans All.) were transplanted and pond scum (Spirogira crassa Kutz) and diatoms (Bacillariophyta) were floated in the water.
(§10) Then, the compounds of the invention were applied dropwise onto the surface of the water so that the prescribed concentrations in the water are obtained as indicated in Table 9.

stonewort = assay: Experiment 7 application to water; type: in vivo, Chara Braunii Gmel.; set-up: scale not given here
From the text: as §9, §10

salvinia = assay: Experiment 7 application to water; type: in vivo, Salvinia natans Allioni; set-up: scale not given here
From the text: as §9, §10

pond scum = assay: Experiment 7 application to water; type: in vivo, Spirogira crassa Kutz.; set-up: scale not given here
From the text: as §9, §10

diatoms = assay: Experiment 7 application to water; type: in vivo, Bacillariophyta; set-up: scale not given here
From the text: as §9, §10

## CP(=O)(O)CCC(N)C(=O)O (racemic) [DL-AMPB choline]
Cockspar grass; 0.05%
  Reproduction-inhibiting effect: ++
Cockspar grass; 0.1%
  Reproduction-inhibiting effect: ±
Cockspar grass; 0.2%
  Reproduction-inhibiting effect: -
yabugarashi; 0.05%
  Reproduction-inhibiting effect: ++
yabugarashi; 0.1%
  Reproduction-inhibiting effect: ±
yabugarashi; 0.2%
  Reproduction-inhibiting effect: -
Hedge bindweed; 0.05%
  Reproduction-inhibiting effect: ++
Hedge bindweed; 0.1%
  Reproduction-inhibiting effect: ±
Hedge bindweed; 0.2%
  Reproduction-inhibiting effect: -
eulalia
  Killing index: 4.5
kiichigo; 0.05%
  Reproduction-inhibiting: +
kiichigo; 0.1%
  Killing index: 4.5
  Reproduction-inhibiting: ±
kiichigo; 0.2%
  Reproduction-inhibiting: -
Lace shrub; 0.05%
  Reproduction-inhibiting: ++
Lace shrub; 0.1%
  Reproduction-inhibiting: -
Lace shrub; 0.2%
  Reproduction-inhibiting: -
yamazakura; 0.05%
  Reproduction-inhibiting: ++
yamazakura; 0.1%
  Reproduction-inhibiting: -
yamazakura; 0.2%
  Reproduction-inhibiting: -
oak; 0.05%
  Reproduction-inhibiting: ++
oak; 0.1%
  Reproduction-inhibiting: -
oak; 0.2%
  Reproduction-inhibiting: -
omodaka; 0.05%
  Reproduction-inhibiting effect: ++
omodaka; 0.1%
  Reproduction-inhibiting effect: ±
omodaka; 0.2%
  Reproduction-inhibiting effect: -
omodaka; 0.2%, 21 days
  Killing index: 4.5
urikawa; 0.05%
  Reproduction-inhibiting effect: ++
urikawa; 0.1%
  Reproduction-inhibiting effect: +
urikawa; 0.2%
  Reproduction-inhibiting effect: -
progbit; 0.05%
  Reproduction-inhibiting effect: ++
progbit; 0.1%
  Reproduction-inhibiting effect: ±
progbit; 0.2%
  Reproduction-inhibiting effect: -
hornwort; 1 ppm, 3 months
  controlling effect: 1
hornwort; 1 ppm, 21 days
  controlling effect: 2
hornwort; 3 ppm, 3 months
  controlling effect: 5
hornwort; 3 ppm, 21 days
  controlling effect: 4.5
hornwort; 10 ppm, 3 months
  controlling effect: 5
hornwort; 10 ppm, 21 days
  controlling effect: 5
stonewort; 1 ppm, 3 months
  controlling effect: 1
stonewort; 1 ppm, 21 days
  controlling effect: 3
stonewort; 3 ppm, 3 months
  controlling effect: 5
stonewort; 3 ppm, 21 days
  controlling effect: 4.5
stonewort; 10 ppm, 3 months
  controlling effect: 5
stonewort; 10 ppm, 21 days
  controlling effect: 5
salvinia; 1 ppm, 3 months
  controlling effect: 2
salvinia; 1 ppm, 21 days
  controlling effect: 3
salvinia; 3 ppm, 3 months
  controlling effect: 5
salvinia; 3 ppm, 21 days
  controlling effect: 4
salvinia; 10 ppm, 3 months
  controlling effect: 5
salvinia; 10 ppm, 21 days
  controlling effect: 5
Pond scum; 1 ppm, 3 months
  controlling effect: 1
Pond scum; 1 ppm, 21 days
  controlling effect: 2
Pond scum; 3 ppm, 3 months
  controlling effect: 5
Pond scum; 3 ppm, 21 days
  controlling effect: 4
Pond scum; 10 ppm, 3 months
  controlling effect: 5
Pond scum; 10 ppm, 21 days
  controlling effect: 5
diatoms; 1 ppm, 3 months
  controlling effect: 1
diatoms; 1 ppm, 21 days
  controlling effect: 3
diatoms; 3 ppm, 3 months
  controlling effect: 5
diatoms; 3 ppm, 21 days
  controlling effect: 4
diatoms; 10 ppm, 3 months
  controlling effect: 5
diatoms; 10 ppm, 21 days
  controlling effect: 5
